The target of this test is T1, TPC1 (Strongylocentrotus purpuratus, UniProt D1J6X7).
T1 sequence (D1J6X7 1-881): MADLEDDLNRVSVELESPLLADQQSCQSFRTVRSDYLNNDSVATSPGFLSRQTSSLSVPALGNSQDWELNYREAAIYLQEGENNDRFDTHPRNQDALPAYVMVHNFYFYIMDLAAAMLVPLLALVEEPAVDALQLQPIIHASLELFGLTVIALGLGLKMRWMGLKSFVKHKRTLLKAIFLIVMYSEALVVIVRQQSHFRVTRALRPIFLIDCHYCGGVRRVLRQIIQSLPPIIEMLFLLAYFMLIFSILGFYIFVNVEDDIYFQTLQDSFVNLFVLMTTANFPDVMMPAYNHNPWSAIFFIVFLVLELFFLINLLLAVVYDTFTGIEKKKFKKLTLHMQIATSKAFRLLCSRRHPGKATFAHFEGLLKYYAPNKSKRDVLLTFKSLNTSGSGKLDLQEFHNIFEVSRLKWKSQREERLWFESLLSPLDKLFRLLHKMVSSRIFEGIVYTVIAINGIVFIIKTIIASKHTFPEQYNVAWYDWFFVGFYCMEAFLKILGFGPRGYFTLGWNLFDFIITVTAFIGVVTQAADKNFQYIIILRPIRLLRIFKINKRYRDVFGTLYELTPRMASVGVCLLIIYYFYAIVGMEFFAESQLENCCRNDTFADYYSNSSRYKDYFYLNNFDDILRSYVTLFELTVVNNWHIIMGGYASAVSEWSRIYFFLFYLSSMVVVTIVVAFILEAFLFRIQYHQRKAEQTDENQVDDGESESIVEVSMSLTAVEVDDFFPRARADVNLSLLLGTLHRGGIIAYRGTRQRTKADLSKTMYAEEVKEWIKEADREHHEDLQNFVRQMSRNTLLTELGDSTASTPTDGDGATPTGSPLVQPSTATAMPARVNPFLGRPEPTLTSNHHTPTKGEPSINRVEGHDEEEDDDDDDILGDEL
The test is described as follows: inhibition of NAADP-evoked Ca2+ signals. In kind it is cell-based.

pIC50: −log10 of the molar value.

The term pIC50 denotes −log10 of the IC50, conventionally taken in molar units. A high value points to a small IC50. `COC(=O)C1=C(C)NC(C)=C(C(=O)OC)C1c1ccccc1[N+](=O)[O-]` [nifedipine] gave a pIC50 of 5.40.
